Results as given in ChEMBL document CHEMBL3217449 (Medchemcomm, 2010).
≈ marks a conversion by molar mass, not a printed value.

Experiments:
[1] = molecular target: Phosphatidylinositol 4,5-bisphosphate 3-kinase catalytic subunit alpha isoform (Mus musculus, UniProt P42337); assay: Inhibition of mouse PI3K alpha expressed in insect cells coexpressing p85 subunit assessed as PI(3,4,5)P3 formation using PI(4,5)P2 as substrate by measuring displacement of TAMRA-labeled PI(3,4,5)P3 from Grip1 PH domain after 35 mins by ligand displacement fluorescence polarization assay
[2] = molecular target: Serine/threonine-protein kinase mTOR (Homo sapiens, UniProt P42345)
Rattus norvegicus [3] = assay: Drug metabolism in iv dosed rat plasma assessed as 2-amino-8-((cis)-4-hydroxycyclohexyl)-6-(6-methoxypyridin-3-yl)-4-methylpyrido[2,3-d]pyrimidin-7(8H)-one level; assay type: ADME, organism-based; details: in vivo
Mus musculus [4] = assay: Drug metabolism in po dosed mouse plasma assessed as 2-amino-8-((cis)-4-hydroxycyclohexyl)-6-(6-methoxypyridin-3-yl)-4-methylpyrido[2,3-d]pyrimidin-7(8H)-one level; assay type: ADME, organism-based; details: in vivo
[5] = Kinetic solubility of the compound; assay type: physicochemical; details: read-out: Kinetic_solubility
[6] = Inhibition of AKT phosphorylation at S473 in human BT20 cells after 1 hr by sandwich ELISA; assay type: cell-based; details: BT-20, 1 h
[7] = Metabolic stability in human liver microsomes assessed as extraction ratio; assay type: ADME; details: read-out: ERH
Rattus norvegicus [8] = assay: Drug metabolism in iv dosed rat plasma assessed as 2-amino-8-((trans)-4-hydroxycyclohexyl)-6-(6-methoxypyridin-3-yl)-4-methylpyrido[2,3-d]pyrimidin-7(8H)-one level; assay type: ADME, organism-based; details: in vivo
Mus musculus [9] = assay: Drug metabolism in po dosed mouse plasma assessed as 2-amino-8-((trans)-4-hydroxycyclohexyl)-6-(6-methoxypyridin-3-yl)-4-methylpyrido[2,3-d]pyrimidin-7(8H)-one level; assay type: ADME, organism-based; details: in vivo
[10] = Drug absorption in rat; assay type: ADME, organism-based; details: in vivo, read-out: Drug absorption
[11] = Clearance in rat at 2 mg/kg, iv and 5 mg/kg, po by LC-MS/MS analysis; assay type: ADME, organism-based; details: in vivo
[12] = Inhibition of AKT phosphorylation at S473 in human SKOV3 cells after 1 hr by sandwich ELISA; assay type: cell-based; details: SK-OV-3, 1 h
[13] = Unbound fraction in rat plasma at 2 mg/kg, iv and 5 mg/kg, po by LC-MS/MS analysis; assay type: ADME, organism-based
[14] = Half life in rat at 2 mg/kg, iv and 5 mg/kg, po by LC-MS/MS analysis; assay type: ADME, organism-based; details: in vivo
Rattus norvegicus [15] = assay: Unbound clearance in rat at 2 mg/kg, iv and 5 mg/kg, po by LC-MS/MS analysis; assay type: ADME, organism-based; details: in vivo
[16] = Volume of distribution at steady state in rat at 2 mg/kg, iv and 5 mg/kg, po by LC-MS/MS analysis; assay type: ADME, organism-based; details: in vivo, read-out: Vdss

Chain of Phosphatidylinositol 4,5-bisphosphate 3-kinase catalytic subunit alpha isoform (P42337 whole entry, the tested form may be a part, canonical isoform): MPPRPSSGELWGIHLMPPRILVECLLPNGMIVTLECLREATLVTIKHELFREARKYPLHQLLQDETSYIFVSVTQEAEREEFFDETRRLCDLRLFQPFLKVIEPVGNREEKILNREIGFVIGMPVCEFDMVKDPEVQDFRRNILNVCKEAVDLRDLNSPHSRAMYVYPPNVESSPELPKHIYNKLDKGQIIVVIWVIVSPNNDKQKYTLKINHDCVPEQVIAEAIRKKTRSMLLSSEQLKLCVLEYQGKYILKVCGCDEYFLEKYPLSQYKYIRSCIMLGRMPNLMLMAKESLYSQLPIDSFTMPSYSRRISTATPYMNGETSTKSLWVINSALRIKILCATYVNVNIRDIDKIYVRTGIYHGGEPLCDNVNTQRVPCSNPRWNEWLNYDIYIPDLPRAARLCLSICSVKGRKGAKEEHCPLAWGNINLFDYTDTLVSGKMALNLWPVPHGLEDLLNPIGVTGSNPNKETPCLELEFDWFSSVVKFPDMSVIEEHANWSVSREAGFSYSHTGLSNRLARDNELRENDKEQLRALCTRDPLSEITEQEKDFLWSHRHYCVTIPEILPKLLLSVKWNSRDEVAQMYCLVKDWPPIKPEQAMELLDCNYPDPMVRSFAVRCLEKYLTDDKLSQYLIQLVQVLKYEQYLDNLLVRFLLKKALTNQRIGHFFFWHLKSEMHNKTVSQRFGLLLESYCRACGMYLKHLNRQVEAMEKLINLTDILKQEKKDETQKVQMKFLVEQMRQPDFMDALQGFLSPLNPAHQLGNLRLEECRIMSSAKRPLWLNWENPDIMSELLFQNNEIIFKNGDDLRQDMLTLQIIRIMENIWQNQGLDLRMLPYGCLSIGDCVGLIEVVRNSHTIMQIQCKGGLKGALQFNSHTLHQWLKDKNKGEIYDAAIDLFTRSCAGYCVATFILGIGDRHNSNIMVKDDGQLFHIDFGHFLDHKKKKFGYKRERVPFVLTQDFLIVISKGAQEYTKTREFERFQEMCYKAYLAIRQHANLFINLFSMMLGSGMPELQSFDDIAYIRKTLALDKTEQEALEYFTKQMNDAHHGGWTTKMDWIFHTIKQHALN

SMILES	Ki [1]	Ki [2]	solubility kinetic [5]	IC50 [6]	hepatic extraction ratio [7]	further results
Cc1nc(N)nc2c1cc(-c1cccc(CO)c1)c(=O)n2C1CCCC1	1.2 nM	82 nM	–	–	–	–
COc1ccc(-c2cc3c(C)nc(N)nc3n([C@H]3CC[C@H](O)CC3)c2=O)cn1	0.9 nM	17 nM	16 µM (≈ 6.1 µg/mL)	12 nM	< 0.25	Stability (Rattus norvegicus [3]): Unstable; Stability (Mus musculus [4]): Unstable
COc1ccc(-c2cc3c(C)nc(N)nc3n([C@H]3CC[C@@H](O)CC3)c2=O)cn1	3 nM	90 nM	60 µM (≈ 22.9 µg/mL)	22 nM	< 0.26	Stability (Rattus norvegicus [8]): Unstable; Stability (Mus musculus [9]): Unstable
COc1ccc(-c2cc3c(C)nc(N)nc3n(C3CCOCC3)c2=O)cn1	3.6 nM	110 nM	40 µM (≈ 14.7 µg/mL)	–	< 0.26	–
CNc1nc(C)c2cc(-c3cccc(CO)c3)c(=O)n(C3CCCC3)c2n1	1.4 nM	840 nM	65 µM (≈ 23.7 µg/mL)	15 nM	0.68	–
CNc1nc(C)c2cc(-c3ccc(OC)nc3)c(=O)n(C3CCCC3)c2n1	1.1 nM	700 nM	–	–	–	–
COc1ccc(-c2cc3c(C)nc(N)nc3n(C3CCCC3)c2=O)cn1	1.4 nM	200 nM	3.9 µM (≈ 1.37 µg/mL)	16 nM	< 0.25	Fa [10]: 28%
COc1ccc(-c2cc3c(C)nc(N)nc3n(C3CCOC3)c2=O)cn1 (stereo not given)	6.6 nM	150 nM	144 µM (≈ 50.9 µg/mL)	–	< 0.26	–
COc1ccc(-c2cc3c(C)nc(N)nc3n([C@H]3CC[C@H](OCCO)CC3)c2=O)cn1 [PF-04691502]	–	–	14 µM (≈ 5.96 µg/mL)	13 nM	–	clearance [11]: 5.2 mL/min/kg; IC50 [12]: 7.4 nM; fraction unbound [13]: 0.202; half-life [14]: 3.1 h; CL free (Rattus norvegicus [15]): 25.9 mL/min/kg; Vd [16]: 1.39 L/kg
